Structures can show the parent of a compound that is named as a salt.
Tests used:
moderate facial acne = assay: Clinical study of doxycycline hyclate 20 mg tablets twice daily in moderate acne: lesion counts; assay type: in vivo, human; details: 20 mg tablets twice a day
Description: Effects of Doxycycline Hyclate 20 mg (Dermastat) Tablets Administered Twice Daily for the Treatment of Moderate Acne
• Multi-center, randomized double-blind, placebo-controlled; • Sixty patients enrolled (30 doxycycline and 30 placebo); • Six month duration of the study. • Patients received medication twice daily, approximately 12 hours apart (placebo and drug are identical in appearance.) Inclusion Criteria: • Healthy post-pubescent males and females (age ≧18) with moderate facial acne: • Comedones 6 to 200; • Inflammatory lesions 10 to 75 (papules and pustules, less than or equal to 5 nodules); • Females tested negative for pregnancy and were non-lactating; • Females maintained appropriate birth control; • Patients signed an Informed Consent Form; • No Accutane treatment for 6 months prior to baseline. Exclusion Criteria: • Use of hormonal contraception 6 months prior to baseline or during study; • Use of topical acne treatments within 6 weeks of baseline or during study; • Use of systemic antibiotics within 6 weeks of baseline or during study; • Use of investigational drugs within 90 days of baseline; • Use of any acne treatments during study. […]

[1] = cited from earlier work
[2] = Plasma antibiotic threshold levels based on steady-state pharmacokinetics
[3] = system: neutrophil chemotaxis induced by bacterial chemotactic factors; details: oral, total daily dose 1000 mg; cited from earlier work
acne = details: sub-antibiotic doses; cited from earlier work

CCO.C[C@H]1c2cccc(O)c2C(O)=C2C(=O)[C@]3(O)C(O)=C(C(N)=O)C(=O)[C@@H](N(C)C)[C@@H]3[C@@H](O)[C@@H]21.C[C@H]1c2cccc(O)c2C(O)=C2C(=O)[C@]3(O)C(O)=C(C(N)=O)C(=O)[C@@H](N(C)C)[C@@H]3[C@@H](O)[C@@H]21.Cl.Cl.O [doxycycline hyclate]
reduction in the number of comedones (in words) (moderate facial acne): significant reduction

CN(C)c1ccc(O)c2c1C[C@H]1C[C@H]3[C@H](N(C)C)C(O)=C(C(N)=O)C(=O)[C@@]3(O)C(O)=C1C2=O [minocycline HCl]
minocycline serum levels (range) ([1]; single dose of two 100 mg tablets, adult humans, over a period of an hour): 0.74 to 4.45 µg/mL | minocycline serum level (average) ([1]; single dose of two 100 mg tablets, adult humans): 2.24 µg/mL

CN(C)[C@@H]1C(O)=C(C(N)=O)C(=O)[C@@]2(O)C(O)=C3C(=O)c4c(O)cccc4[C@@](C)(O)[C@H]3C[C@@H]12 [tetracycline HCl]
peak plasma concentration ([1]; 250 mg every six hours over a twenty-four hour period): approximately 3 μg/ml | serum concentration level ([1]; 500 mg every six hours over a twenty-four hour period): 4 to 5 µg/mL

CN(C)[C@@H]1C(O)=C(C(N)=O)C(=O)[C@@]2(O)C(O)=C3C(=O)c4c(O)cccc4[C@@](C)(O)[C@H]3C[C@@H]12 [tetracycline]
plasma antibiotic threshold level [2]: 0.5 µg/mL | neutrophil chemotaxis [3]: inhibition | clinical effect on acne (acne): no clinical effect
